Measured values: ChEMBL document CHEMBL4825771 (ACS Med Chem Lett, 2021)

Tests used:
[1] = target: 5-hydroxytryptamine receptor 2A (Homo sapiens, UniProt P28223); assay: Displacement of [3H]-ketanserin from human 5-HT2A receptor incubated for 90 mins by scintillation counting analysis
[2] = Metabolic stability in human liver microsomes assessed as intrinsic clearance measured after 60 mins by LC-MS/MS analysis; format: ADME, Microsome; details: read-out: CLH
[3] = Metabolic stability in human liver microsomes assessed as half life measured after 60 mins by LC-MS/MS analysis; format: ADME, Microsome

Sequence of 5-hydroxytryptamine receptor 2A (P28223 whole entry): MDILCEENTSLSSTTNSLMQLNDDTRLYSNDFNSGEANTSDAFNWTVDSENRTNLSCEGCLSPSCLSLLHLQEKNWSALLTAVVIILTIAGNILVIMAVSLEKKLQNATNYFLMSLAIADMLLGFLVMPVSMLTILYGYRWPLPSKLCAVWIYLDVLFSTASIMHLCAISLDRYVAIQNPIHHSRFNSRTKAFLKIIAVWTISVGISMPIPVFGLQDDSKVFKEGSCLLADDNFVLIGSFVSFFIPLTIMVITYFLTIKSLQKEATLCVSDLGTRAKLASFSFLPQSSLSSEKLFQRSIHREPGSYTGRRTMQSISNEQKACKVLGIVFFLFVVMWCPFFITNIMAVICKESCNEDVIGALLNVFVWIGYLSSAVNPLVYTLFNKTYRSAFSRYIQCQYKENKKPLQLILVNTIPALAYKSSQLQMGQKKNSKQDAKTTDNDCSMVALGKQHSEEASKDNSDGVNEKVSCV

Question: What does the source list for `[2H]C([2H])([2H])N(C([2H])([2H])[2H])C([2H])([2H])C([2H])([2H])c1c[nH]c2cccc(OC(=O)CCCCCCCC/C=C\C/C=C\CCCCC)c12`?
Answer: EC50 [1]: 0.965 µM; microsomal CLint [2]: 10.4 µL/min/mg; half-life at 2 µM [3]: 2.23 h
